Earlier results in US8735360B2 (priority 2009, dated 2014).
Positions of bridges follow the written chain, without caps; N, C: chain ends. Residues, ends and D or L forms follow the SMILES beside them.

Details: oral administration at therapeutic dose levels; cited from earlier work

In the case of `C[C@@H]1NC(=O)[C@@H]2CCCN2C(=O)[C@H](CC(N)=O)NC(=O)[C@@H]2CSSC[C@H](N)C(=O)N[C@H]3CSSC[C@H](NC1=O)C(=O)N[C@@H]([C@@H](C)O)C(=O)NCC(=O)N[C@H](C(=O)N[C@@H](Cc1ccc(O)cc1)C(=O)O)CSSC[C@H](NC(=O)[C@H](Cc1ccc(O)cc1)NC(=O)[C@H](CCC(=O)O)NC3=O)C(=O)N2` [linaclotide, Linaclotide] (H-CCEYCCNPACTGCY-OH; disulfide 1-6, 2-10, 5-13), the “Levels seen systemically after oral administration” value is listed as “no detectable levels”.
